From ChEMBL document CHEMBL1201862, “PubChem BioAssay data set” (2004) come the findings set out here.

The source made the active and inactive calls.

The subject of one experiment is Staphylococcus aureus. Description: Inhibitors of Bacterial Quorum Sensing Structure Activity Relationship (SAR) Analysis: Dose Response Assay. [Related pubchem assays: 700, 527 ]. The class given is functional, organism-based.
Experiment [1] has as its target Transitional endoplasmic reticulum ATPase (Homo sapiens, UniProt P55072). Description: p97 ATPase inhibitors, dose response, biochemical (AID 1534).
Experiment [2] deals with Transitional endoplasmic reticulum ATPase (Homo sapiens, UniProt P55072, C522A). In words: C522A mutant p97 ATPase inhibitors, dose response, counter-screen for p97 inhibitor project, biochemical, luminescence (AID 1544).
The target of experiment [3] is Photoreceptor-specific nuclear receptor (Homo sapiens, UniProt Q9Y5X4). The experiment is classed as functional.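 Note: potency for compounds that break the NR2E3 corepressor complex and count as activators.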
The target in experiment [4] is Peroxisome proliferator-activated receptor gamma/Nuclear receptor corepressor 2 (Homo sapiens, UniProt P37231+Q9Y618). The experiment is classed as functional.
Experiment [5] in a line: cells. The class given is functional, cell-based.
Experiment [6] in a line: cells. The class given is functional, cell-based. This is another data set of the same source.
The target of experiment [7] is Lysosomal acid glucosylceramidase (Homo sapiens, UniProt P04062). In words: Dose response cell-based high throughput screening assay to identify enhancers of beta-glucosidase activity. [Related pubchem assays: 784 ]. The experiment is classed as functional.
Experiment [8] can be described thus: HepG2 cell cytotoxicity, dose response, cytotoxicity control for non-replicating M. tuberculosis project (AID 489018). The experiment is classed as functional. The settings on record: Mycobacterium tuberculosis.
The target of experiment [9] is G2/mitotic-specific cyclin-B1 (Homo sapiens, UniProt P14635). In words: Counterscreen assay for inhibitors of Wee1 degradation: dose response cell-based assay to identify inhibitors of cyclin B degradation. [Related pubchem assays: 1410, 1321 ]. The class given is functional. (Counterscreens check selectivity or assay interference.)
Experiment [10] deals with T1, Calpain-2 catalytic subunit (Sus scrofa, UniProt P43367).
T1 sequence (P43367 whole entry): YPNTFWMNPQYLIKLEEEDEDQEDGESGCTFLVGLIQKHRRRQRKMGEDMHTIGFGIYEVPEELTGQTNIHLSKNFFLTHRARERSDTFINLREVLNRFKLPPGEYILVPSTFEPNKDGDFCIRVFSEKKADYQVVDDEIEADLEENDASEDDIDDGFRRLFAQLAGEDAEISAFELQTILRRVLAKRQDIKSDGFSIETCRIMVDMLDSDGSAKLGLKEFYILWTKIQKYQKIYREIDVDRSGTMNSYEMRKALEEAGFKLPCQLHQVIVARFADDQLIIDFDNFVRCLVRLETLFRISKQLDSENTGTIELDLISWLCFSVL
In words: pig calpain II inhibitor potency, dose response, biochemical, fluorogenic peptide substrate (AID 1420). The experiment is classed as functional.

Experiment [11] can be described thus: cytotoxicity in KRAS-transformed pancreatic duct cells, primary screen, cell-based, fluorescence, HTS (AID 431).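 Note: cell line used: HPDE-C7K.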 The class given is functional. Conditions: Homo sapiens.
The subject of the next experiment is INS1. Description: beta cell apoptosis inhibitors, cytokine rescue, dose response, luminescence, retest (AID 449756).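 Note: cell death triggered by IL-1 beta plus TNF-alpha plus IFN-gamma mixture; protective hits raise ATP signal compared with cytokine alone wells.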 The experiment is classed as functional, cell-based. Conditions: Rattus norvegicus.
Experiment [12] in a line: growth suppression of beta-catenin-knockout colon cells, dose response, cell-based, HCT116, human colon tumor (AID 1045).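 Note: HCT116 colon tumor cells with beta catenin knocked out; cells exposed to compound for 60 hours.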 The class given is functional.
Experiment [13] can be described thus: growth suppression of PTEN-null colon cells, dose response, cell-based, HCT116 PTEN knockout (AID 1047).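 Note: HCT116 colon tumor cells with PTEN knocked out; cells exposed to compound for 60 hours before readout; potency for loss of cell viability measured by luminescence.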 The class given is functional.
Experiment [14] in a line: Vero E6 cell cytotoxicity, dose response, cytotoxicity control for non-replicating M. tuberculosis project, secondary assay (AID 492998). The experiment is classed as functional, VeroE6. The settings on record: Vero C1008.
For the next experiment, the target named is Wee1-like protein kinase (Homo sapiens, UniProt P30291). In words: Dose Response Cell-based Assay for Inhibitors of Wee1 Degradation. [Related pubchem assays: 1410, 1321 ]. The class given is functional.
Experiment [15] can be described thus: cells. The experiment is classed as functional.
The nature of experiment [16]: THP-1 cell cytotoxicity, dose response, cytotoxicity control for non-replicating M. tuberculosis project (AID 489025). The class given is functional.
The nature of experiment [17]: cytotoxicity in HPDE-C7 cells, cell-based, fluorescence, HTS (AID 430). Conditions: Homo sapiens. The experiment is classed as functional.
Experiment [18] is described as follows: microbe, parasite or virus in culture. The experiment is classed as functional. The settings on record: Mycobacterium tuberculosis.
Experiment [19] has as its target T2, Eukaryotic translation initiation factor 2-alpha kinase 3 (Homo sapiens, UniProt Q9NZJ5). Description: Counterscreen assay for PERK inhibitors: Dose response cell-based high throughput screening assay to measure inhibition of PERK at 6 hours. [Related pubchem assays: 1522, 1416 ]. The class given is functional.
In experiment [20] the target is T2, Eukaryotic translation initiation factor 2-alpha kinase 3. In words: Dose response cell-based high-throughput screening assay to measure PERK inhibition. [Related pubchem assays: 1416 ]. The experiment is classed as functional.
A short description of experiment [21]: insulin promoter down-regulators in MIN6 cells, imaging, high-content screening, mouse beta cells (AID 1628). The class given is functional.
In experiment [22] the test system is HEK293. In words: cells. The settings on record: Homo sapiens.
In experiment [23] the test system is HEK293. In words: Fluorescence-based counterscreen for potentiators or agonists of NPY-Y2: cell-based high-throughput dose response assay to identify inhibitors of cyclic nucleotide gated ion channel (CNGC) activity. In this assay, the parental HEK293 cell line transfected with a cyclic-nucleotide gated ion channel (CNGC)-based cAMP sensor is used to measure inhibition of isoproterenol-induced CNGC activity by test compound. The experiment is classed as functional. Conditions: Homo sapiens.

For experiment [24], the target named is Neuropeptide Y receptor type 2 (Homo sapiens, UniProt P49146). Description: Fluorescence-based cell-based high-throughput dose response assay for agonists of NPY-Y2. [Related pubchem assays: 1703 (Screening assay (CNGC inhibitors).), 1359 (Screening assay (NPY-Y2 potentiators or agonists).), 1304 (Screening assay (NPY-Y1 potentiators or agonists).), 1710 (Screening assay (NPY-Y2 agonists).), 1791 (Summary AID.)]. The experiment is classed as functional.

A short description of experiment [25]: cytotoxicity in MIN6 insulinoma cells, dose response, cytotoxicity control, cell-based, mouse insulinoma (AID 2122).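 Note: confirmatory high-throughput counterscreen run to flag cytotoxic compounds; mouse MIN-6 beta cells carrying an insulin promoter eGFP reporter.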 The class given is functional.
A further experiment has as its system Vero. Description: cells. The experiment is classed as functional. Conditions: Chlorocebus sabaeus.
The target in another experiment is Tumor necrosis factor (Homo sapiens, UniProt P01375). In words: TNFa-triggered NF-kB activation inhibitors, SAR follow-up, cell-based, revised (AID 2337). The experiment is classed as functional.
Experiment [26] concerns the target T3, Nucleotide-binding oligomerization domain-containing protein 1 (Homo sapiens, UniProt Q9Y239).
T3 sequence (Q9Y239 whole entry): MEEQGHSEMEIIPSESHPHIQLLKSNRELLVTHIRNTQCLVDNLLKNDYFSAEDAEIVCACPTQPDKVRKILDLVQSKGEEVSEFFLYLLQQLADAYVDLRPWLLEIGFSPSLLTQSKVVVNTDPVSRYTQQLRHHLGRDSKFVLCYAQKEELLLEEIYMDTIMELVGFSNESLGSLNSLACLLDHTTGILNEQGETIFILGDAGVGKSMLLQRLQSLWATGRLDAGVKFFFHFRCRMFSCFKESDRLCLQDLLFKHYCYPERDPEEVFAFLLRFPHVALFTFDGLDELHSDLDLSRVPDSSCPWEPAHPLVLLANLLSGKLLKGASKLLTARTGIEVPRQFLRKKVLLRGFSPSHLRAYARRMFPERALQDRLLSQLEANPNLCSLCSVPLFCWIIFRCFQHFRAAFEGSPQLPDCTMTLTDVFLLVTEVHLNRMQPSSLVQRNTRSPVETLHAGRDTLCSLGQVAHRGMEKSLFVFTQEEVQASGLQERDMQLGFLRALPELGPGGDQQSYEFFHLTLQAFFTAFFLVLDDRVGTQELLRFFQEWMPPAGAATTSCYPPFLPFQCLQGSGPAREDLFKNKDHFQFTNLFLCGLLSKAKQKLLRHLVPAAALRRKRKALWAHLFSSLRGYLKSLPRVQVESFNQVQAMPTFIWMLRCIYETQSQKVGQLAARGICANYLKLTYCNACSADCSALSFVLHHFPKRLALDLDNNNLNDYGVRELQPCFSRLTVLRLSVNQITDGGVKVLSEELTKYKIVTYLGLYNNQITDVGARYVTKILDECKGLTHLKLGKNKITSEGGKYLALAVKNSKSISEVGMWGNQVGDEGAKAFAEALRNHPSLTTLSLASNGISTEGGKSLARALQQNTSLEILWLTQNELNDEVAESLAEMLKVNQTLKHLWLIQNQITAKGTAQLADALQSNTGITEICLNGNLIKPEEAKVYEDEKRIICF
Description: NOD1 signaling inhibitors, SAR follow-up, revised (AID 2333). The class given is functional.

For experiment [27], the target named is Neuropeptide Y receptor type 1 (Homo sapiens, UniProt P25929). In words: Fluorescence-based counterscreen for agonists of NPY-Y2: cell-based high-throughput dose response assay for agonists of NPY-Y1. The experiment is classed as functional.

T2 sequence (Q9NZJ5 whole entry): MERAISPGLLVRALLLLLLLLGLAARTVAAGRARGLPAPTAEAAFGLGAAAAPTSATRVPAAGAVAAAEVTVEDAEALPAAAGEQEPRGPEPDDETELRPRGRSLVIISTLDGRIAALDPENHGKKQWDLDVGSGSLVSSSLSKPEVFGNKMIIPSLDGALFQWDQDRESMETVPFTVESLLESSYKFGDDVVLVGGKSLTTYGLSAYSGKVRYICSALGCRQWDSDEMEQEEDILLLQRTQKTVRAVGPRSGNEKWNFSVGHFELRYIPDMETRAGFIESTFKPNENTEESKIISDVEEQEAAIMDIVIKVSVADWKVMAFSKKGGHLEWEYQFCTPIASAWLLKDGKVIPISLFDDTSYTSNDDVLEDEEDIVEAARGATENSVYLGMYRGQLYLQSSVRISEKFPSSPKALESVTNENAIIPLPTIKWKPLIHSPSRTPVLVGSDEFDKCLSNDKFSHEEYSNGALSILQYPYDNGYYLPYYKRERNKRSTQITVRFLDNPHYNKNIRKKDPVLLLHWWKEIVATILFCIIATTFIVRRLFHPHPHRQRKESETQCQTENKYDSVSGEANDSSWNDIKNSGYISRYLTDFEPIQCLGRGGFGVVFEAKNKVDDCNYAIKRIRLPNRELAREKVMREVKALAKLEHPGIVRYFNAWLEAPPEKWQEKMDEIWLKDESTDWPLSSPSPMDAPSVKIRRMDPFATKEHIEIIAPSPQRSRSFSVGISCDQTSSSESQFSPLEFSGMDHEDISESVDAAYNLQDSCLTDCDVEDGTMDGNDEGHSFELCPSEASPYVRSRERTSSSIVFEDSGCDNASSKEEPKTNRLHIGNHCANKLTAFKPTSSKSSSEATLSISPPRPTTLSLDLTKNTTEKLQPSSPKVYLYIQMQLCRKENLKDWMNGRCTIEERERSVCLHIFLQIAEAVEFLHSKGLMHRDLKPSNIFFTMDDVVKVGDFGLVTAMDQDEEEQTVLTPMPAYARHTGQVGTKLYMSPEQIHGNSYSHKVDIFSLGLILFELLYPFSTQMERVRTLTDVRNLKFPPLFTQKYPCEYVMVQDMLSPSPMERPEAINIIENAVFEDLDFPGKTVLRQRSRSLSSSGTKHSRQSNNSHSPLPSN
Chain of Wee1-like protein kinase (P30291 whole entry): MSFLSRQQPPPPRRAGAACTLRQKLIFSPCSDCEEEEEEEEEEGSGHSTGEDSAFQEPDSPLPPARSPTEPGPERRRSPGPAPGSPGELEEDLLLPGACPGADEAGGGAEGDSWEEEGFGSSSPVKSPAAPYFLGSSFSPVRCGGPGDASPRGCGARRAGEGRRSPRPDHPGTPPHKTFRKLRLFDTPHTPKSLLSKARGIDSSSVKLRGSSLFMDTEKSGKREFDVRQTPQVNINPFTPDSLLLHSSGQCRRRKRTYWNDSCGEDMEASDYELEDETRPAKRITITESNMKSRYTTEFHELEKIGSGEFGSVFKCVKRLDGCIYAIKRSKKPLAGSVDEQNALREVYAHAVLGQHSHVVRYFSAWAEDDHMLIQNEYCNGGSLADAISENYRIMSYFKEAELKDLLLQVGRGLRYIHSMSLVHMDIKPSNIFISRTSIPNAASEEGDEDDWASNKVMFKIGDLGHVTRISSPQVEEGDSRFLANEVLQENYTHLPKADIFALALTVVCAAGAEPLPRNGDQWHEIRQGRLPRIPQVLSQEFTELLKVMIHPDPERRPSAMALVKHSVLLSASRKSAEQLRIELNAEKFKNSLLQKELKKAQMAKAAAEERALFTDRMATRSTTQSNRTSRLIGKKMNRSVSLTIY
Chain of Photoreceptor-specific nuclear receptor (Q9Y5X4 whole entry): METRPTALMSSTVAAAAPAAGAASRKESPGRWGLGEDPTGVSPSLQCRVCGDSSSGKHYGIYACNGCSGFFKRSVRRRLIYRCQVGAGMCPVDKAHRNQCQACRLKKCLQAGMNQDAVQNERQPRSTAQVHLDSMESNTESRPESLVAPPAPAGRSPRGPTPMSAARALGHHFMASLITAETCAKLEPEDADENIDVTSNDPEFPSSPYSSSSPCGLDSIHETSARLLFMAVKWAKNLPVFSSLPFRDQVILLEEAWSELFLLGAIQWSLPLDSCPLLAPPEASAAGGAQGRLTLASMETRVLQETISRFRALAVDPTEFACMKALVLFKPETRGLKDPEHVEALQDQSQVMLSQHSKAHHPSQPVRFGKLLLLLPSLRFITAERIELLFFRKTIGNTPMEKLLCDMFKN
Chain of Transitional endoplasmic reticulum ATPase (Homo sapiens, UniProt P55072) (P55072 whole entry): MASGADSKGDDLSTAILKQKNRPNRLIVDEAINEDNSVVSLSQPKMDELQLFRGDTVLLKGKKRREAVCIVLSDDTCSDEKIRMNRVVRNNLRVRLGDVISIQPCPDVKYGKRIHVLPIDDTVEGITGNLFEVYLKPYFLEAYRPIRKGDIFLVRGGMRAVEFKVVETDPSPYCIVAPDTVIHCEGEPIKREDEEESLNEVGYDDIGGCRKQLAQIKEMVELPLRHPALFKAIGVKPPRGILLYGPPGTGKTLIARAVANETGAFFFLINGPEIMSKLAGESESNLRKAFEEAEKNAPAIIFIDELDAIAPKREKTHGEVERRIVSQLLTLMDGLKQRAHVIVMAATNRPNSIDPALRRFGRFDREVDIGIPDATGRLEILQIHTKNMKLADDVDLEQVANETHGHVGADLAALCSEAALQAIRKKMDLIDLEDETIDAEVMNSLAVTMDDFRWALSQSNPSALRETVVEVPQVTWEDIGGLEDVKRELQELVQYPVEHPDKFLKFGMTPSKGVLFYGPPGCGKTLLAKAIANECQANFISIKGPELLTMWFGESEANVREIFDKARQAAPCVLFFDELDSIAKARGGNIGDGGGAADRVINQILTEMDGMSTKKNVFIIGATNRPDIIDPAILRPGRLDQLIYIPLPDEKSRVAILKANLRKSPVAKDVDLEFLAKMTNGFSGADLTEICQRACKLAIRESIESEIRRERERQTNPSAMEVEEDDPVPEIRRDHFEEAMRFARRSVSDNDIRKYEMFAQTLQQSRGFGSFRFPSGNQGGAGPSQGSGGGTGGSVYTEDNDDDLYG
Chain of Transitional endoplasmic reticulum ATPase (Homo sapiens, UniProt P55072, C522A) (P55072 2-806 C522A limits assumed): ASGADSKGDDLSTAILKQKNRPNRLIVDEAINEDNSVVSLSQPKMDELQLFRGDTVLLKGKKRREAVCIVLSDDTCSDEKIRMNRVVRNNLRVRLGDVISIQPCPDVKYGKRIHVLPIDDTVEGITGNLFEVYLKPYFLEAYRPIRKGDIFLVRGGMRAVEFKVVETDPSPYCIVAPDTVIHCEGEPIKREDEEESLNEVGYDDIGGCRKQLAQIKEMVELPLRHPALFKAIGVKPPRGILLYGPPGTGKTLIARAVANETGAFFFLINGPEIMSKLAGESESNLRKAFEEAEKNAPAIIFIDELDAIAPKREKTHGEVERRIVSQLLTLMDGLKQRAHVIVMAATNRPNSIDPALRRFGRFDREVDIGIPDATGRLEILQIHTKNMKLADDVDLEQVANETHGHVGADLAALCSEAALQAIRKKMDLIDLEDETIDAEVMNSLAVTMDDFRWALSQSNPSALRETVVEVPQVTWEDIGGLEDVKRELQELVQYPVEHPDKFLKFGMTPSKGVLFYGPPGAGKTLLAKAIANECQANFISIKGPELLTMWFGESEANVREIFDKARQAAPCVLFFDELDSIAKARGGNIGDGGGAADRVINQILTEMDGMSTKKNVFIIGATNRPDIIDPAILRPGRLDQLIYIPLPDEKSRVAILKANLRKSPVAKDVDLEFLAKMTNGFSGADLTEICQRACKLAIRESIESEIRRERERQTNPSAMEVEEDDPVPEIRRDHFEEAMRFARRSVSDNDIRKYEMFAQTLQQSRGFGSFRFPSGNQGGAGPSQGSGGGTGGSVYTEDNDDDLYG
Chain of Lysosomal acid glucosylceramidase (P04062 whole entry): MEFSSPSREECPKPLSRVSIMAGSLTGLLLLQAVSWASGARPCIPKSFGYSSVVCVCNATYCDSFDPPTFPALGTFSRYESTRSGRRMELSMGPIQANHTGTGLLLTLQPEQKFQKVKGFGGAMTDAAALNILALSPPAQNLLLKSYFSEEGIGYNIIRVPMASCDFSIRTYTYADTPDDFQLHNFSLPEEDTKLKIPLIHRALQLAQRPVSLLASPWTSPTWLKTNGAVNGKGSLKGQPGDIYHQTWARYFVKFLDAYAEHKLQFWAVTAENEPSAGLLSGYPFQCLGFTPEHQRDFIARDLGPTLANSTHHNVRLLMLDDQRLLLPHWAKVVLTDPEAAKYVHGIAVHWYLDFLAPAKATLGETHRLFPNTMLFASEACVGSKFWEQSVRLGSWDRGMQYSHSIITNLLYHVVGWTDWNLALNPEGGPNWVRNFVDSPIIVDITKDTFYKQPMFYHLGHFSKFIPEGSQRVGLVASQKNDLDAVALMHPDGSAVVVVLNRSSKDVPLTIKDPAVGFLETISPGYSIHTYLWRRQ
Chain of G2/mitotic-specific cyclin-B1 (P14635 whole entry): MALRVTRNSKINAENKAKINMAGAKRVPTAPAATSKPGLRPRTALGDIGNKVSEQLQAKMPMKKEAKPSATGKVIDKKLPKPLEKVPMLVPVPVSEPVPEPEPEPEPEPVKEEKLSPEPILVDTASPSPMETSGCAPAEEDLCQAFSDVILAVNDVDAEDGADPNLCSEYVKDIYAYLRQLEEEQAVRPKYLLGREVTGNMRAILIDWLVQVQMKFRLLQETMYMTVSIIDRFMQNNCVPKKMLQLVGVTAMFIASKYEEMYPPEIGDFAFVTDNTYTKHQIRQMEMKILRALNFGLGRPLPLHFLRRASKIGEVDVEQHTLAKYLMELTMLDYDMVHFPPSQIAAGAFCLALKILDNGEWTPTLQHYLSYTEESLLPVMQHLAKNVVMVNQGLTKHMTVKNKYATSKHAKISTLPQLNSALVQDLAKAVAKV
Chain of Tumor necrosis factor (P01375 whole entry, the tested form may be a part): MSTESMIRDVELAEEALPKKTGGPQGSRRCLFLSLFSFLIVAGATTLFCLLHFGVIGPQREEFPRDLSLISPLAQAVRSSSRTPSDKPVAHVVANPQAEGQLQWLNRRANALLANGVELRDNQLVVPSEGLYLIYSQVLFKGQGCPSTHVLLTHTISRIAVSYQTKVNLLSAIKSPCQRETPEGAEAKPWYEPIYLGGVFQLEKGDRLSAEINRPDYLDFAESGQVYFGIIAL

On to `CCc1ccc(S(=O)(=O)c2nnn3c2nc(O)c2ccccc23)cc1`, for which, in the experiment on Staphylococcus aureus, the IC50 (commonly the concentration that inhibits the measured activity by half) is 0.244 µM (active).
`Cc1ccc2[nH]cc(C(=O)CCl)c2c1`: the IC50 in experiment [1] and in [2] was > 50 µM (not active) each time.
Consider `CC(C)Cc1c2c([nH]c(=S)c1C#N)CCCC2`, for which the IC50 in experiment [3] is > 39.8 µM (not active); in experiment [4], 6.27 µM (active).
`COc1ccc(CNC(=O)CN(CC2CCCO2)C(=O)CNS(=O)(=O)c2ccc(C)cc2)cc1` (stereo not drawn): the EC50 (in general, the concentration at which the effect is half-maximal) in “cells [5]” is given as > 350 µM (not active); in “cells [6]” it was > 350 µM (not active); in experiment [7] it was > 50 µM (not active).
Consider `[O-][n+]1onc2c3cc(-c4ccccc4)[nH]c3ccc21`, for which the CC50 in [8] is 2.6 µM (active); in experiment [14], 1.27 µM (active); in experiment [16], 1.57 µM (active); in experiment [18], 1.47 µM (active). In addition, the EC50 is > 49.7 µM (not active) in [9]; 9.83 µM (active) in experiment [11]; 0.597 µM (active) in experiment [12]; 0.65 µM (active) in [13]; > 1.84 µM (active) at Wee1-like protein kinase; 4.16 µM (active) in experiment [17]. In addition, the figures for the IC50 (in [10]; in the experiment “cells [15]”) were 1.59 µM (not active) and 0.67 µM (active), respectively. The AC50 (commonly the midpoint of the concentration-response curve, whichever way the signal moves) with INS1 was 2.52 µM (active).
For `COc1ccc2nc(NC(=O)CSc3nnc(C)n3N)sc2c1`, the EC50 in experiment [19] and in experiment [20] was > 55.7 µM (not active) throughout.
As for `O=C(Nc1cccc([N+](=O)[O-])c1)c1cc2ccccc2cc1O`, the IC50 in [21] was 2.73 µM (active); with HEK293 [22], 11.8 µM (active); in [25], 2.72 µM (active); at Tumor necrosis factor it was 2.2 µM (active); in [26], 1.48 µM (active). The EC50 (in the experiment with HEK293 [23]; in [24]; in [27]) was > 35.4 µM (not active) throughout. In addition, the AC50 with INS1 is 3.67 µM (active). Besides, in the experiment on Vero, the CC50 is 3.95 µM (active).
